The structures appear in SMILES notation. Converted amounts (≈) assume the structure as drawn. The source made the active and inactive calls. The calls are words filed in the database; no cut-off is given here. Some results are limits rather than exact numbers.

In test [1] the test system is Candida albicans. Briefly: Antifungal activity against Candida albicans CAF2-1 after 24 hrs by spectrophotometry based broth dilution assay. It counts as functional. As to conditions: CAF2-1, 24 h.
For test [2], the system named is Candida albicans. Briefly: Antibiofilm activity against Candida albicans CAF2-1 after 48 hrs by XTT assay. The format is functional. To be noted: CAF2-1, 48 h. In general terms: Tetrazolium dyes change colour on reduction, which living cells bring about.
The test system of test [3] is Candida albicans. Kind of test: Antifungal activity against hypersusceptible Candida albicans DSY2621 mutant after overnight incubation by MTT based bioautography method. It counts as functional.
Test [4] has as its system Candida albicans. Briefly: Antifungal activity against Candida albicans CAF2-1 after overnight incubation by MTT based bioautography method. The format is functional.
In test [5] the test system is Candida albicans. Briefly: Induction of ultrastructural changes in Candida albicans CAF2-1 assessed as cytoplasmic content dis-organization with disappearance of mitochondria at 16 ug/ml after 18 hrs by uranyl acetate/lead citrate staining based transmission electron microscopy. The format is functional, organism-based.
In test [6] the test system is Candida albicans. Briefly: Induction of ultrastructural changes in Candida albicans CAF2-1 assessed as reduction in budding initiation at 16 ug/ml after 18 hrs by uranyl acetate/lead citrate staining based transmission electron microscopy. It counts as functional, organism-based.
Test [7] relates to Candida albicans. Kind of test: Induction of ultrastructural changes in Candida albicans CAF2-1 assessed as disorganization and disruption of nuclear membrane at 16 ug/ml after 18 hrs by uranyl acetate/lead citrate staining based transmission electron microscopy. The format is functional, organism-based.
Test [8] concerns Candida albicans. Kind of test: Induction of ultrastructural changes in Candida albicans CAF2-1 assessed as cytoplasmic content dis-organization with disappearance of golgi apparatus at 16 ug/ml after 18 hrs by uranyl acetate/lead citrate staining based transmission electron microscopy. It counts as functional, organism-based.
Test [9] concerns Candida albicans. Briefly: Induction of ultrastructural changes in Candida albicans CAF2-1 assessed as cytoplasmic content dis-organization at 16 ug/ml after 18 hrs by uranyl acetate/lead citrate staining based transmission electron microscopy. The format is functional, organism-based.
Test [10] relates to Candida albicans. Kind of test: Induction of ultrastructural changes in Candida albicans CAF2-1 assessed as breakage zones of plasma membrane at 16 ug/ml after 18 hrs by uranyl acetate/lead citrate staining based transmission electron microscopy. It counts as functional, organism-based.
Test [11] deals with Candida albicans. Kind of test: Induction of ultrastructural changes in Candida albicans CAF2-1 assessed as cytoplasmic content dis-organization with disappearance of ribosomes at 16 ug/ml after 18 hrs by uranyl acetate/lead citrate staining based transmission electron microscopy. The format is functional, organism-based.
For test [12], the system named is Candida albicans. Kind of test: Induction of ultrastructural changes in Candida albicans CAF2-1 assessed as retraction of cytoplasm at 16 ug/ml after 18 hrs by uranyl acetate/lead citrate staining based transmission electron microscopy. The format is functional, organism-based.

For `CC1(C)CCC[C@]2(C)c3c(O)c(O)c4c(c3CC[C@@H]12)C(=O)OCC4`, the MIC against Candida albicans [1] was over 32 µg/mL; in the test with Candida albicans [2] it was 50 µg/mL (≈ 151 µM); with Candida albicans [3], 8 µg; in the test with Candida albicans [4], over 50 µg.

Regarding `CC1(C)CCC[C@]2(C)c3c(O)c(O)c4c(c3CC[C@@H]12)C(=O)O[C@H]4CO`, the MIC in the test on Candida albicans [1] is 32 µg/mL (≈ 92.4 µM); in the test on Candida albicans [2], 25 µg/mL (≈ 72.2 µM); against Candida albicans [3], 8 µg; with Candida albicans [4] it was over 50 µg. The outcome with Candida albicans [5], in the test with Candida albicans [6], with Candida albicans [7], with Candida albicans [8], in the test with Candida albicans [9] and in the test on Candida albicans [10] was Active. Also, the outcome in the test on Candida albicans [11] and in the test on Candida albicans [12] was Active.

For `COc1c(O)c2c(c3c1CCOC3=O)CC[C@H]1C(C)(C)CCC[C@]21C`, the MIC against Candida albicans [1] is over 32 µg/mL; in the test on Candida albicans [2] it was over 50 µg/mL; in the test with Candida albicans [3], over 50 µg; against Candida albicans [4] it was over 50 µg.

In the case of `CC1(C)CCC[C@]2(C)c3c(O)c(O)c4c(c3C=C[C@@H]12)C(=O)O[C@@H]4CO`, the MIC in the test with Candida albicans [1] was over 32 µg/mL; with Candida albicans [2] it was 50 µg/mL (≈ 145 µM); against Candida albicans [3], over 50 µg; with Candida albicans [4] it was over 50 µg.

`COc1ccc(-c2coc3cc(O)c(OC)cc3c2=O)cc1` [CASTANIN]: the MIC against Candida albicans [1] is over 32 µg/mL; with Candida albicans [2], over 50 µg/mL; against Candida albicans [4], over 50 µg.

For `CC1(C)CCC[C@]2(C)c3c(O)c(O)c4ccoc(=O)c4c3CC[C@@H]12`, the values for the MIC against Candida albicans [1] and in the test with Candida albicans [2] were over 32 µg/mL and 50 µg/mL (≈ 152 µM), respectively.

As for `COc1c(O)c2c(c3c1CCOC3=O)CC[C@H]1C(C)(C)C(=O)CC[C@]21C`, the MIC with Candida albicans [1] is over 32 µg/mL; in the test on Candida albicans [2], over 50 µg/mL; against Candida albicans [3], over 50 µg; with Candida albicans [4] it was over 50 µg.

Take `COc1c(O)c2c(c3c(=O)occc13)CC[C@H]1C(C)(C)C(=O)CC[C@]21C`: the MIC was over 32 µg/mL with Candida albicans [1], over 50 µg/mL against Candida albicans [2], 10 µg with Candida albicans [3] and over 50 µg in the test on Candida albicans [4].

For `COc1c(O)c2c(c3c1[C@@H](CO)OC3=O)CC[C@H]1[C@@H]3C[C@@H]3CC[C@]21C`, the MIC against Candida albicans [1] is over 32 µg/mL; against Candida albicans [2] it was 50 µg/mL (≈ 145 µM).

On to `COc1c(O)c2c(c3c(=O)occc13)CC[C@H]1C(C)(C)CCC[C@]21C`, for which the values for the MIC against Candida albicans [1], against Candida albicans [2] and against Candida albicans [4] were over 32 µg/mL, over 50 µg/mL and over 50 µg, respectively.

For the compound `COc1c(O)c2c(c3c1[C@@H](CO)OC3=O)CC[C@H]1C(C)(C)C(=O)CC[C@]21C`, the MIC is over 32 µg/mL in the test on Candida albicans [1], over 50 µg/mL against Candida albicans [2], over 50 µg against Candida albicans [3] and over 50 µg against Candida albicans [4].

As for `Clc1ccc(COC(Cn2ccnc2)c2ccc(Cl)cc2Cl)c(Cl)c1` (stereo not given) [MICONAZOLE], the results for the MIC in the test with Candida albicans [1], in the test on Candida albicans [3] and against Candida albicans [4] were 0.0156 µg/mL (≈ 0.0375 µM), 0.0006 µg and 0.005 µg, respectively.

`COc1c(O)c2c(c3c1[C@@H](CO)OC3=O)CC[C@H]1C(C)(C)CCC[C@]21C`: the MIC is over 32 µg/mL with Candida albicans [1], over 50 µg/mL against Candida albicans [2], 20 µg in the test with Candida albicans [3] and over 50 µg against Candida albicans [4].

Regarding `COc1c(O)c2c(c3c1[C@H](O)COC3=O)CC[C@H]1C(C)(C)CCC[C@]21C`, the MIC against Candida albicans [1] was determined as 32 µg/mL (≈ 88.8 µM); in the test with Candida albicans [2], 50 µg/mL (≈ 139 µM); in the test on Candida albicans [3], 5 µg; against Candida albicans [4], 2 µg.

`C[C@H]1C(CCO)=C(O)C(=O)[C@H]2[C@H]1CC[C@H]1C(C)(C)CCC[C@]21C`: the results for the MIC in the test with Candida albicans [1], against Candida albicans [2] and in the test with Candida albicans [3] were over 32 µg/mL, over 50 µg/mL and under 20 µg, respectively.

These data come from ChEMBL document CHEMBL3763141, “Anti-Candida Cassane-Type Diterpenoids from the Root Bark of Swartzia simplex” (2015).
